Assay results taken from US9932303B2, “N-hydroxymethanesulfonamide nitroxyl donors” (Cardioxyl Pharmaceuticals, Inc., priority 2014, dated 2018).

Assays:
[1] = In vitro stability in dog plasma; format: in vitro ADME; conditions: pH 7.4, 37° C.; for half-life at 5 μM: male, read-out: T1/2 (minutes) Dog
Experimental: (§1) Certain compounds from Table 1 were tested for their stability in plasma. The assay system comprised (i) PBS, or plasma from rat, dog or human (at least 3 donors, male, pooled) at pH 7.4, and (ii) for tests conducted in plasma, an anticoagulant (sodium heparin or sodium citrate). Each test compound (5 μM) was incubated in PBS or plasma at 37° C. on a THERMOMIXER® with shaking Three samples (n=3) were taken at each of seven sampling time points: 0, 10, 30, 60, 90, 180 and 360 minutes. The samples were immediately combined with 3 volumes (i.e., 3 times the volume of PBS or plasma) of acetonitrile containing 1% formic acid and an internal standard to terminate the reaction. AB SCIEX API 3000 LC-MS/MS analysis of the test compounds was performed without a standard curve. Half-lives (T1/2) of the test compounds were determined from graphs of the percent remaining values using the peak area response ratio.

[2] = In vitro stability in rat plasma; format: in vitro ADME; conditions: pH 7.4, 37° C.; for half-life at 5 μM: male, read-out: T1/2 (minutes) Rat
Experimental: as §1

[3] = In vitro stability in human plasma; format: in vitro ADME; conditions: pH 7.4, 37° C.; for half-life at 5 μM: male, read-out: T1/2 (minutes) Human
Experimental: as §1

[4] = tested on: patients with systolic heart failure; conditions: cited from earlier work

| SMILES | melting point [°C] | half-life at 5 μM [1] [min] | half-life at 5 μM [2] [min] | half-life at 5 μM [3] [min] | also measured |
| --- | --- | --- | --- | --- | --- |
| O=S(=O)(Cc1cc(Cl)ccc1Cl)NO [Compound 10, 1-(2,5-Dichlorophenyl)-N-hydroxymethanesulfonamide] | 158 | 27 | 12 | 12 | – |
| O=S(=O)(Cc1ccc(F)cc1)NO [Compound 6, 1-(4-Fluorophenyl)-N-hydroxymethanesulfonamide] | 158 | 34 | – | – | – |
| Cc1cccc(CS(=O)(=O)NO)c1 [Compound 5, N-Hydroxy-1-(3-methylphenyl)methanesulfonamide] | 98 | 55 | 61 | 81 | – |
| O=S(=O)(Cc1cc(F)ccc1F)NO [Compound 9, 1-(2,5-Difluorophenyl)-N-hydroxymethanesulfonamide] | 125 | 30 | – | – | – |
| O=S(=O)(Cc1ccc(Cl)c(Cl)c1)NO [Compound 12, 1-(3,4-Dichlorophenyl)-N-hydroxymethanesulfonamide] | 175 | 60 | 54 | 34 | – |
| O=S(=O)(Cc1ccccc1C(F)(F)F)NO [Compound 7, N-Hydroxy-1-[2-(trifluoromethyl)phenyl]methanesulfonamide] | 123 | 25 | – | – | – |
| O=S(=O)(Cc1ccc(Cl)cc1Cl)NO [Compound 11, 1-(2,4-Dichlorophenyl)-N-hydroxymethanesulfonamide] | 158 | 45 | – | – | – |
| O=S(=O)(Cc1cccc(Cl)c1)NO [Compound 3, 1-(3-Chlorophenyl)-N-hydroxymethanesulfonamide] | 150 | 70 | 40 | 52 | – |
| CC(C)(c1ccc(Cl)cc1)S(=O)(=O)NO [Compound 28, 2-(4-Chlorophenyl)-N-hydroxypropane-2-sulfonamide] | – | – | – | – | T1/2 (minutes) Dog ([1]; 5 μM): 26 min; T1/2 (minutes) Rat ([2]; 5 μM): 48 min; T1/2 (minutes) Human ([3]; 5 μM): 37 min |
| CS(=O)(=O)c1ccccc1S(=O)(=O)NO [CXL-1020, N-hydroxy-2-methanesulfonylbenzene-1-sulfonamide] | – | – | – | – | side effects ([4]; at threshold doses needed to produce hemodynamic effects, intravenous): unacceptable levels of inflammatory irritation at and distal to the intravenous insertion site; hemodynamic effects ([4]; patients with systolic heart failure, intravenously as an aqueous solution at pH=4): reduced both left and right heart filling pressures and systemic vascular resistance, while increasing cardiac and stroke volume index |
| O=S(=O)(Cc1ccccc1Cl)NO [Compound 4, 1-(2-Chlorophenyl)-N-hydroxymethanesulfonamide] | 124 | 36 | 38 | 28 | – |
| O=S(=O)(Cc1ccc(F)cc1F)NO [Compound 8, 1-(2,4-Difluorophenyl)-N-hydroxymethanesulfonamide] | 166 | 46 | 36 | 31 | – |
| O=S(=O)(Cc1cccc(F)c1)NO [Compound 13, 1-(3-Fluorophenyl)-N-hydroxymethanesulfonamide] | 109 | 42 | – | – | – |

The next lines start with results.

| melting point [°C] | half-life at 5 μM [1] [min] | half-life at 5 μM [2] [min] | half-life at 5 μM [3] [min] | SMILES | also measured |
| --- | --- | --- | --- | --- | --- |
| 160 | 42 | – | – | O=S(=O)(Cc1ccc(Br)cc1)NO [Compound 16, 1-(4-Bromophenyl)-N-hydroxymethanesulfonamide] | – |
| 161 | 45 | – | – | O=S(=O)(Cc1cccc(Br)c1)NO [Compound 15, 1-(3-Bromophenyl)-N-hydroxymethanesulfonamide] | – |
| 138 | – | – | – | O=S(=O)(NO)C1(c2ccc(Cl)cc2)CC1 [Compound 29, 1-(4-Chlorophenyl)-N-hydroxycyclopropane-1-sulfonamide] | – |
| 136 | 33 | – | – | O=S(=O)(Cc1cc(F)cc(F)c1)NO [Compound 20, 1-(3,5-Difluorophenyl)-N-hydroxymethanesulfonamide] | – |
| 117 | – | – | – | O=S(=O)(Cc1ccc2oncc2c1)NO [Compound 26, 1-(Benzo[d]isoxazol-5-yl)-N-hydroxymethanesulfonamide] | – |
| 118 | 31 | – | – | O=S(=O)(Cc1ccccc1F)NO [Compound 14, 1-(2-Fluorophenyl)-N-hydroxymethanesulfonamide] | – |
| 140 | – | – | – | O=S(=O)(Cc1c(Cl)cccc1Cl)NO [Compound 21, 1-(2,6-Dichlorophenyl)-N-hydroxymethanesulfonamide] | – |
| 132 | 29 | – | – | O=S(=O)(Cc1cccc(C(F)(F)F)c1)NO [Compound 17, N-Hydroxy-1-[3-(trifluoromethyl)phenyl]methanesulfonamide] | – |
| 129 | – | – | – | CC(c1ccc(Cl)cc1)S(=O)(=O)NO (centres unmarked) [Compound 27, 1-(4-Chlorophenyl)-N-hydroxyethanesulfonamide] | – |
| 156 | 74 | 42 | 33 | O=S(=O)(Cc1ccc(C(F)(F)F)cc1)NO [Compound 18, N-Hydroxy-1-[4-(trifluoromethyl)phenyl]methanesulfonamide] | – |
| 143 | 21 | 18 | 25 | O=S(=O)(Cc1noc2ccccc12)NO [Compound 22, 1-1,2-Benzoxazol-3-yl-N-hydroxymethanesulfonamide] | – |
| 127 | – | – | – | O=S(=O)(Cc1c(F)cccc1Cl)NO [Compound 19, 1-(2-Chloro-6-fluorophenyl)-N-hydroxymethanesulfonamide] | – |
